Measurements published in the NIST ThermoML archive (doi:10.1021/je025657+).
Where “and” joins values, the source holds several entries; their conditions need not be identical. Identical values can stand only once.

Conditions: for vapor or sublimation pressure: Closed cell (Static) method

COC(F)(F)F [trifluoromethoxymethane]
Gas, Burnett expansion method
Conditions	mass density [kg/m3]
320 K, 421.5 kPa	17.3
320 K, 570.4 kPa	24.28
320 K, 604.9 kPa	25.98
320 K, 802.9 kPa	36.45
320 K, 847.1 kPa	38.98
330 K, 137.5 kPa	5.133
330 K, 188.9 kPa	7.099
330 K, 203.7 kPa	7.696
330 K, 280.6 kPa	10.75
330 K, 300.2 kPa	11.55
330 K, 410.7 kPa	16.13
330 K, 437.5 kPa	17.29
330 K, 594.3 kPa	24.27
330 K, 630.6 kPa	25.96
330 K, 841.9 kPa	36.48
330 K, 889 kPa	38.98
340 K, 141.7 kPa	5.126
340 K, 195.8 kPa	7.136
340 K, 210.4 kPa	7.694
340 K, 310.5 kPa	11.54
340 K, 425.6 kPa	16.13
340 K, 453.5 kPa	17.28
340 K, 655.6 kPa	25.94
340 K, 879.5 kPa	36.45
340 K, 929.4 kPa	38.95
340 K, 1216.9 kPa	54.78
340 K, 1278.5 kPa	58.56
340 K, 1605.8 kPa	82.06
350 K, 146.2 kPa	5.127
350 K, 202.9 kPa	7.174
350 K, 217 kPa	7.688
350 K, 299.5 kPa	10.74
350 K, 320.6 kPa	11.53
350 K, 469.2 kPa	17.27
350 K, 640.8 kPa	24.25
350 K, 680.3 kPa	25.92
350 K, 969 kPa	38.92
350 K, 1277.1 kPa	54.75
350 K, 1343.5 kPa	58.5
350 K, 1709.6 kPa	82.31
350 K, 1782.8 kPa	87.93

Conditions	mass density [kg/m3]
320 K, 449.1 kPa, Gas	18.62
320 K, 634.7 kPa, Gas	27.54
320 K, 968.5 kPa, Gas	46.37
320 K, 1046.3 kPa, Liquid	1013.52
320 K, 1081.4 kPa, Liquid	1013.85
320 K, 1117.7 kPa, Liquid	1014.21
320 K, 1512.4 kPa, Liquid	1017.85
320 K, 1515.2 kPa, Liquid	1018.55
320 K, 2029.1 kPa, Liquid	1023.1
320 K, 2036.4 kPa, Liquid	1022.49
320 K, 2520.5 kPa, Liquid	1026.61
320 K, 2529.1 kPa, Liquid	1027.35
320 K, 3012.2 kPa, Liquid	1031.29
320 K, 3050.4 kPa, Liquid	1030.92
320 K, 3512.7 kPa, Liquid	1035.21
320 K, 3595.2 kPa, Liquid	1035.17
320 K, 4030.7 kPa, Liquid	1039.11
320 K, 4131.4 kPa, Liquid	1039.19
320 K, 4518.5 kPa, Liquid	1042.67
320 K, 4616.1 kPa, Liquid	1042.69
320 K, 5039.6 kPa, Liquid	1046.35
320 K, 5136.9 kPa, Liquid	1046.33
320 K, 5518 kPa, Liquid	1049.62
320 K, 5652.1 kPa, Liquid	1049.82
320 K, 6055.9 kPa, Liquid	1053.18
320 K, 6201.4 kPa, Liquid	1053.41
320 K, 6522.4 kPa, Liquid	1056.19
320 K, 6721.8 kPa, Liquid	1056.72
320 K, 6877.8 kPa, Liquid	1058.42
320 K, 7175.8 kPa, Liquid	1059.52
330 K, 72.1 kPa, Gas	2.7
330 K, 106.1 kPa, Gas	3.97
330 K, 155.7 kPa, Gas	5.88
330 K, 227.6 kPa, Gas	8.7
330 K, 330.5 kPa, Gas	12.87
330 K, 475.1 kPa, Gas	19.02
330 K, 674.2 kPa, Gas	28.13
330 K, 936.5 kPa, Gas	41.69
330 K, 1364.9 kPa, Liquid	972.53
330 K, 1414.6 kPa, Liquid	973.15
330 K, 1458.1 kPa, Liquid	973.66
330 K, 2087 kPa, Liquid	981.1
330 K, 2555.2 kPa, Liquid	986.24
330 K, 3114.9 kPa, Liquid	992.08
330 K, 3553.8 kPa, Liquid	996.38
330 K, 4105.6 kPa, Liquid	1001.58
330 K, 4643.4 kPa, Liquid	1006.39
330 K, 5117 kPa, Liquid	1010.47
330 K, 5639.1 kPa, Liquid	1014.76
330 K, 6168.6 kPa, Liquid	1018.96
330 K, 6739.6 kPa, Liquid	1023.31
330 K, 7155.4 kPa, Liquid	1026.38
340 K, 1691.6 kPa, Liquid	925.88
340 K, 1704.5 kPa, Liquid	926.14
340 K, 1776.3 kPa, Liquid	927.36
340 K, 2059.3 kPa, Liquid	932.03
340 K, 2582.2 kPa, Liquid	940.1
340 K, 3081.7 kPa, Liquid	947.17
340 K, 3596.1 kPa, Liquid	953.91
340 K, 4130.8 kPa, Liquid	960.48
340 K, 4614 kPa, Liquid	966.04
340 K, 5146.7 kPa, Liquid	971.84
340 K, 5642.7 kPa, Liquid	976.95
340 K, 6163.1 kPa, Liquid	982.05
340 K, 6711.6 kPa, Liquid	987.19
340 K, 7112.6 kPa, Liquid	990.78
350 K, 2091.1 kPa, Liquid	872.23
350 K, 2104.3 kPa, Liquid	872.59

Liquid
Conditions	mass density	vapor or sublimation pressure
320 K	1013.47 kg/m3 and 1014.09 kg/m3	1038.1 kPa and 1038.5 kPa and 1038.4 kPa
325 K	–	1175.7 kPa
330 K	972.09 kg/m3 and 973.36 kg/m3 and 973.37 kg/m3	1325.7 kPa and 1325.6 kPa
335 K	–	1489.7 kPa
340 K	925.57 kg/m3	1668.8 kPa and 1668.5 kPa and 1670.2 kPa
345 K	–	1863.6 kPa
